Four molecules from US20260234157A1, “COMPOUND AND METHOD FOR TARGETED DEGRADATION OF ANDROGEN RECEPTOR” (Gan & Lee Pharmaceuticals Co., Ltd., priority 2023, published 2026) can be followed below.

Changes are numbered by the printed parent chain.

The first assay addresses T1, AR protein (Homo sapiens, UniProt P10275, T878A).
T1 construct: degradation activity of the compounds disclosed in the present disclosure on AR protein in LNCaP cells; host or cells: LNCaP FGC
T1 sequence (P10275 1-920 T878A): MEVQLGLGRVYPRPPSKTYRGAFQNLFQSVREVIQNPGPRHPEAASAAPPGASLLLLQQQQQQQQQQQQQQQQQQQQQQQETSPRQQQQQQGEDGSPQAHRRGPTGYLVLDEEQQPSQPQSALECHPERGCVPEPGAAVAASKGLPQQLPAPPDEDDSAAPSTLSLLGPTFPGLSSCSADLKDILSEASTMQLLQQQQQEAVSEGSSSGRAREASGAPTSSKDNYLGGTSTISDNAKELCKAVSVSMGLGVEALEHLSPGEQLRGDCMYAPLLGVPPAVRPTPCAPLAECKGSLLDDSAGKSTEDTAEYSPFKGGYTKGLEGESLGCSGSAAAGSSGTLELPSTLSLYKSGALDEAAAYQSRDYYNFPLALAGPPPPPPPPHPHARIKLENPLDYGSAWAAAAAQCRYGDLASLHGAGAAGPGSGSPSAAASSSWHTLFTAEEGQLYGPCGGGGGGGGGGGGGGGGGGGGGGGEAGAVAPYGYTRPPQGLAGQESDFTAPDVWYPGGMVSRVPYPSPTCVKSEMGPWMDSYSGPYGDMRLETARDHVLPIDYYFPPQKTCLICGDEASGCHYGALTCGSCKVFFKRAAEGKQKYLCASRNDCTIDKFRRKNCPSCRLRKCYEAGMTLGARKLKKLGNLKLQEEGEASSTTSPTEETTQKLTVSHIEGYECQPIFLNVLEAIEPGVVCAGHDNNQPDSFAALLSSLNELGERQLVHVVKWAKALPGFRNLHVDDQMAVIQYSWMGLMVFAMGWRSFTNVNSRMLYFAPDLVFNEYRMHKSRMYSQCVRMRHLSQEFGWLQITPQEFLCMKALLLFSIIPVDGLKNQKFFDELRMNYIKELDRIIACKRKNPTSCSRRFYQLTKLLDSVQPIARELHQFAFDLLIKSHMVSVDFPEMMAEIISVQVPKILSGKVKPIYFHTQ
The assay is described as follows: Degradation of AR protein in LNCaP cells (Western blot). It is filed as cell-based. Conditions: LNCaP cells, compound 10 nM, 8 hours, Western blot grayscale, GAPDH internal reference; read-out: Degradation rates of the AR protein in LNCaP cells, 10 nM (%). In outline: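 AR assessed by SDS-PAGE/Western blot with infrared imaging; band greyscale normalised to GAPDH gave percent degradation.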
(In western blotting, separated proteins are transferred to a membrane and probed.)
Take `COc1cc(O[C@H]2C(C)(C)[C@H](NC(=O)c3ccc(N4CCC(F)(CN5CCC6(CC5)COc5c6ccc6c5CN(C5CCC(=O)NC5=O)C6=O)CC4)cc3)C2(C)C)ccc1C#N` (some centres unmarked) [Compound 223]: the inhibition at 0.01 µM was determined as 27%.
Still for that read-out and setting: in the case of `COc1cc(O[C@H]2C(C)(C)[C@H](NC(=O)c3ccc(N4CCC(C#N)(CN5CCC6(CC5)COc5c6ccc6c5CN(C5CCC(=O)NC5=O)C6=O)CC4)nn3)C2(C)C)ccc1C#N` (some centres unmarked) [Compound 224] it was 41%; in that of `CC1(C)[C@H](NC(=O)c2ccc(N3CCC(C#N)(CN4CCC5(CC4)COc4c5ccc5c4CN(C4CCC(=O)NC4=O)C5=O)CC3)nn2)C(C)(C)[C@H]1Oc1ccc(C#N)c(Cl)c1` (some centres unmarked) [Compound 225], -35%; in that of `N#Cc1ccc(O[C@H]2CC[C@H](NC(=O)c3ccc(N4CC[C@H](CN5CCC6(CC5)COc5c6ccc6c5CN(C5CCC(=O)NC5=O)C6=O)[C@H](F)C4)nn3)CC2)cc1Cl` (some centres unmarked) [Compound 226], 52%.

The same assay, now with this note: LNCaP cells, compound 100 nM, 8 hours, Western blot grayscale, GAPDH internal reference; read-out: Degradation rates of the AR protein in LNCaP cells, 100 nM (%).
Turning to `COc1cc(O[C@H]2C(C)(C)[C@H](NC(=O)c3ccc(N4CCC(F)(CN5CCC6(CC5)COc5c6ccc6c5CN(C5CCC(=O)NC5=O)C6=O)CC4)cc3)C2(C)C)ccc1C#N` (some centres unmarked) [Compound 223], the inhibition at 0.1 µM was 20%.
On the same count and under the same terms, the value for `COc1cc(O[C@H]2C(C)(C)[C@H](NC(=O)c3ccc(N4CCC(C#N)(CN5CCC6(CC5)COc5c6ccc6c5CN(C5CCC(=O)NC5=O)C6=O)CC4)nn3)C2(C)C)ccc1C#N` (some centres unmarked) [Compound 224] was 52%.
On the same count and under the same terms, in the case of `CC1(C)[C@H](NC(=O)c2ccc(N3CCC(C#N)(CN4CCC5(CC4)COc4c5ccc5c4CN(C4CCC(=O)NC4=O)C5=O)CC3)nn2)C(C)(C)[C@H]1Oc1ccc(C#N)c(Cl)c1` (some centres unmarked) [Compound 225] it was 7%.
Same read-out and setting: in the case of `N#Cc1ccc(O[C@H]2CC[C@H](NC(=O)c3ccc(N4CC[C@H](CN5CCC6(CC5)COc5c6ccc6c5CN(C5CCC(=O)NC5=O)C6=O)[C@H](F)C4)nn3)CC2)cc1Cl` (some centres unmarked) [Compound 226] it was 34%.

The next assay deals with T2, AR protein (Homo sapiens, UniProt P10275).
T2 construct: degradation activity of the compounds disclosed in the present disclosure on AR protein in VCaP cells; host or cells: VCaP
T2 sequence (P10275 1-920): T1 sequence (P10275 1-920 T878A) with A878T
Nature of the assay: Degradation of AR protein in VCaP cells (Western blot). Conditions: compound at 10 nM, 8 hours, read-out: Degradation rate of the AR protein in VCaP cells, 10 nM (%). The assay is classed as cell-based. The method in brief:
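VCaP cells treated with compound alongside solvent controls for 8 h, then lysed in RIPA and protein quantified by BCA. AR detected by SDS-PAGE/Western blot with infrared imaging. Degradation rate calculated from band grayscale, with GAPDH as internal reference.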
For the molecule `COc1cc(O[C@H]2C(C)(C)[C@H](NC(=O)c3ccc(N4CCC(F)(CN5CCC6(CC5)COc5c6ccc6c5CN(C5CCC(=O)NC5=O)C6=O)CC4)cc3)C2(C)C)ccc1C#N` (some centres unmarked) [Compound 223], the inhibition at 0.01 µM is -3%.
Take `COc1cc(O[C@H]2C(C)(C)[C@H](NC(=O)c3ccc(N4CCC(C#N)(CN5CCC6(CC5)COc5c6ccc6c5CN(C5CCC(=O)NC5=O)C6=O)CC4)nn3)C2(C)C)ccc1C#N` (some centres unmarked) [Compound 224]: the inhibition at 0.01 µM amounted to 24%.
Same read-out and setting: in the case of `CC1(C)[C@H](NC(=O)c2ccc(N3CCC(C#N)(CN4CCC5(CC4)COc4c5ccc5c4CN(C4CCC(=O)NC4=O)C5=O)CC3)nn2)C(C)(C)[C@H]1Oc1ccc(C#N)c(Cl)c1` (some centres unmarked) [Compound 225] it was -29%.
On the same count and under the same terms, in the case of `N#Cc1ccc(O[C@H]2CC[C@H](NC(=O)c3ccc(N4CC[C@H](CN5CCC6(CC5)COc5c6ccc6c5CN(C5CCC(=O)NC5=O)C6=O)[C@H](F)C4)nn3)CC2)cc1Cl` (some centres unmarked) [Compound 226] it was 74%.

The assay is the same for the next values; noted with them: compound at 100 nM, 8 hours, read-out: Degradation rate of the AR protein in VCaP cells, 100 nM (%).
`COc1cc(O[C@H]2C(C)(C)[C@H](NC(=O)c3ccc(N4CCC(F)(CN5CCC6(CC5)COc5c6ccc6c5CN(C5CCC(=O)NC5=O)C6=O)CC4)cc3)C2(C)C)ccc1C#N` (some centres unmarked) [Compound 223]: the inhibition at 0.1 µM was found to be 52%.
Same read-out and setting: in the case of `COc1cc(O[C@H]2C(C)(C)[C@H](NC(=O)c3ccc(N4CCC(C#N)(CN5CCC6(CC5)COc5c6ccc6c5CN(C5CCC(=O)NC5=O)C6=O)CC4)nn3)C2(C)C)ccc1C#N` (some centres unmarked) [Compound 224] it was 57%; in that of `CC1(C)[C@H](NC(=O)c2ccc(N3CCC(C#N)(CN4CCC5(CC4)COc4c5ccc5c4CN(C4CCC(=O)NC4=O)C5=O)CC3)nn2)C(C)(C)[C@H]1Oc1ccc(C#N)c(Cl)c1` (some centres unmarked) [Compound 225], 30%; in that of `N#Cc1ccc(O[C@H]2CC[C@H](NC(=O)c3ccc(N4CC[C@H](CN5CCC6(CC5)COc5c6ccc6c5CN(C5CCC(=O)NC5=O)C6=O)[C@H](F)C4)nn3)CC2)cc1Cl` (some centres unmarked) [Compound 226], 83%.

For a further assay, the system named is LNCaP FGC cells. Nature of the assay: Inhibition of proliferation of LNCaP cells (WST-8). Particulars: Homo sapiens, LNCaP, 96 h, LNCaP FGC cells, 96 hours, WST-8 absorbance at 450 nm; read-out: IC50 for inhibiting the proliferation of LNCaP cells. It is filed as cell-based. The procedure: The cells were cultured in a cell culture incubator with 5% CO2 at 37° C. overnight. […] On the sixth day, 96 well plates were taken out, and 20 μL of WST-8 (Beytime, C0040) reagent was added to each well.
For orientation: Formazan colour is commonly taken as a measure of viable cells.
As for `COc1cc(O[C@H]2C(C)(C)[C@H](NC(=O)c3ccc(N4CCC(F)(CN5CCC6(CC5)COc5c6ccc6c5CN(C5CCC(=O)NC5=O)C6=O)CC4)cc3)C2(C)C)ccc1C#N` (some centres unmarked) [Compound 223], the IC50 came to 0.009 µM.
The same measure, in the same setting: the value for `COc1cc(O[C@H]2C(C)(C)[C@H](NC(=O)c3ccc(N4CCC(C#N)(CN5CCC6(CC5)COc5c6ccc6c5CN(C5CCC(=O)NC5=O)C6=O)CC4)nn3)C2(C)C)ccc1C#N` (some centres unmarked) [Compound 224] was 0.011 µM.
On the same count and under the same terms, in the case of `CC1(C)[C@H](NC(=O)c2ccc(N3CCC(C#N)(CN4CCC5(CC4)COc4c5ccc5c4CN(C4CCC(=O)NC4=O)C5=O)CC3)nn2)C(C)(C)[C@H]1Oc1ccc(C#N)c(Cl)c1` (some centres unmarked) [Compound 225] it was 0.03 µM; in that of `N#Cc1ccc(O[C@H]2CC[C@H](NC(=O)c3ccc(N4CC[C@H](CN5CCC6(CC5)COc5c6ccc6c5CN(C5CCC(=O)NC5=O)C6=O)[C@H](F)C4)nn3)CC2)cc1Cl` (some centres unmarked) [Compound 226], 0.0025 µM.
